In patent publication US20260125346A1, “Isoquinolinone Derivatives and 4H-Quinolizinone Derivatives and Pharmaceutical Compositions Thereof for the Treatment of Disease” (BeOne Medicines I GmbH, priority 2023, published 2026) one finds IC50 data, which are given here for 21 molecules.

Broadly, the IC50 is the midpoint of a concentration-inhibition curve.

Experiment [1] deals with PI3Kα (p110/p85) kinase (wild type, "WT") (Homo sapiens, UniProt P42336). The experiment is described as follows: PI3Kα (p110/p85) kinase ADP-Glo Assay. The class given is biochemical. Particulars: 25 uM ATP. In a few lines: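 Wild-type PI3Kα p110/p85 preincubated 30 min at RT with PI(4,5)P2:PS substrate ([…]) and compound ([…]) in HEPES pH7.5 buffer with MgCl2, DTT and BSA; reaction started with 25 µM ATP for 120 min at RT. ADP measured by ADP-Glo luminescence; IC50 from four-parameter logistic fit.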
(In general: ADP-Glo turns the ADP formed in a reaction into a luminescent signal.)

The subject of experiment [2] is WT cell line SK-BR-3. The experiment is described as follows: Cell Proliferation Assay (CellTiter-Glo), SK-BR-3. The class given is cell-based. The settings on record: Homo sapiens, 72 h; SK-BR-3, 3 days treatment. Here is the method: The SK-BR-3 (ATCC, HTB-30) cell line was obtained from the American Type Culture Collection. Cells were maintained in McCoy' 5A medium (Gibco, REF #16600108) supplemented with 10% Fetal Bovine Serum. Cultures were maintained in a humidified incubator at 37° C. under 5% CO2/95% air.
Cell Proliferation Assay. PI3Kα H1047R mutated cell line T-47D cells and WT cell line SK-BR-3 were seeded at a density of 3×10^3 cells per well in 96 well plate (Xinyou Biotechnology, 062096) in 95 μL of culture medium, overnight. Compounds dissolved in 10 mM stock solutions in DMSO were serially diluted 1:3 in DMSO to generate a 9-point dilution series and plated using an INTEGRA ASSIST Plus pipetting robot. A 20× intermediate compound dilution plate in RPMI1640 medium (200 M starting compound concentration in 2% DMSO) was then prepared. Five μL of intermediate serially diluted compounds were added to the cell plate to final concentrations ranging from […] to 1 nM in 0.1% DMSO. 0.1% DMSO alone was used to establish the maximum signal and medium without cells was for minimum signal. After 3 days treatment, equilibrated the plate and its contents at room temperature for approximately 30 minutes. Added 30 μL CellTiter-Glo® Reagent (Promega, REF #G7571) to each well. Then mixed contents for 5 min on plate shaker to induce cell lysis. Incubated at room temperature for 10 minutes to stabilize luminescent signal. The plates were read on PHERAstar FSX Microplate reader using standard luminescence settings.
Relative IC50 values were determined using luminescence units by calculating percent inhibition with respect to the in-plate “MIN” (medium only) and “MAX” (0.1% DMSO) controls. The data were analyzed using a 4-parameter nonlinear logistic equation (four-parameter logistic concentration-response curve): Y=bottom+[(top−bottom)/1+(X/IC50) slope] • where Y=% inhibition, X=concentration of inhibitor, bottom=minimum value of y attained by curve-fit, top=maximum value of y attained by curve-fit and slope=steepness of curve at the IC50.
Background: ATP-based viability assays read luminescence as a measure of living cells.

For experiment [3], the system named is WT cell line SK-BR-3. The experiment is described as follows: Phospho-AKT (Ser473) Inhibition Assay (HTRF), SK-BR-3. It counts as cell-based. Particulars: Homo sapiens; SK-BR-3, 1 hour treatment; read-out: p-AKT Inhibition assay (S473) IC50 SK-BR-3. In outline:
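SK-BR-3 (PI3Kα WT) cells seeded overnight in MEM with insulin, then treated 1 h with 11-point 1:3 dilutions (10 μM to 0.1 nM, 0.1% DMSO). Lysates read for phospho-AKT Ser473 by HTRF after 4 h antibody incubation at room temperature. IC50 from 4-parameter fit, % inhibition normalized to DMSO (max) and 10 μM GDC0077 (min).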

Each structure is given as a SMILES string.

PI3Kα (p110/p85) kinase (wild type, "WT"), sequence (P42336 whole entry): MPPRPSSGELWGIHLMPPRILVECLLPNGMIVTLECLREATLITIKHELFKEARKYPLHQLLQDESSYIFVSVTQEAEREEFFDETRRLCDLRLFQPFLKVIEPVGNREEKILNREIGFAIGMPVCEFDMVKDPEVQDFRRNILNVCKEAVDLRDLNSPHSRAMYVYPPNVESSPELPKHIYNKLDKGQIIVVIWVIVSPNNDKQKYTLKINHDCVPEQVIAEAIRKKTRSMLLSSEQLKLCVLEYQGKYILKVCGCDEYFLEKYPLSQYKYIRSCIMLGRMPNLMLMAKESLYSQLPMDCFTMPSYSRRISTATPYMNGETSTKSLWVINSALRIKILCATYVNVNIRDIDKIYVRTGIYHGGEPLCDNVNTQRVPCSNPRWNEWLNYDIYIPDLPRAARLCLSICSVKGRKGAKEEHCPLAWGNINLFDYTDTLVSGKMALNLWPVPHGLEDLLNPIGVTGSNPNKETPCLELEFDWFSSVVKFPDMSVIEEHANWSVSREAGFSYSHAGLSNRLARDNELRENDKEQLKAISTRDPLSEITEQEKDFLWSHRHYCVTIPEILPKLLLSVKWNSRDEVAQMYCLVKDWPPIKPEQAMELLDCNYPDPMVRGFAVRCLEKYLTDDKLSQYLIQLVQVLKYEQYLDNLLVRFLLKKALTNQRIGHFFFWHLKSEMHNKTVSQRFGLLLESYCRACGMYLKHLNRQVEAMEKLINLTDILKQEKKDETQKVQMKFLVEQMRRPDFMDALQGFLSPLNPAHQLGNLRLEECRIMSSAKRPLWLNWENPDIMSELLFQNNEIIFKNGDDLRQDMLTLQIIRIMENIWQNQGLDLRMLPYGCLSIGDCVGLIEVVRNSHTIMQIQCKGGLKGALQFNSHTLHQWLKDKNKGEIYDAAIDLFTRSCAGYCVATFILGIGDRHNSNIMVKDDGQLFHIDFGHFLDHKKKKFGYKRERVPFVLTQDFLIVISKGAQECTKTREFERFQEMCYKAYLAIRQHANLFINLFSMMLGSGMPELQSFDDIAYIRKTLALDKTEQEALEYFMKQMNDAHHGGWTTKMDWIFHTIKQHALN
PI3Kα (p110/p85) kinase (wild type, "WT"), sequence (P27986 whole entry partner): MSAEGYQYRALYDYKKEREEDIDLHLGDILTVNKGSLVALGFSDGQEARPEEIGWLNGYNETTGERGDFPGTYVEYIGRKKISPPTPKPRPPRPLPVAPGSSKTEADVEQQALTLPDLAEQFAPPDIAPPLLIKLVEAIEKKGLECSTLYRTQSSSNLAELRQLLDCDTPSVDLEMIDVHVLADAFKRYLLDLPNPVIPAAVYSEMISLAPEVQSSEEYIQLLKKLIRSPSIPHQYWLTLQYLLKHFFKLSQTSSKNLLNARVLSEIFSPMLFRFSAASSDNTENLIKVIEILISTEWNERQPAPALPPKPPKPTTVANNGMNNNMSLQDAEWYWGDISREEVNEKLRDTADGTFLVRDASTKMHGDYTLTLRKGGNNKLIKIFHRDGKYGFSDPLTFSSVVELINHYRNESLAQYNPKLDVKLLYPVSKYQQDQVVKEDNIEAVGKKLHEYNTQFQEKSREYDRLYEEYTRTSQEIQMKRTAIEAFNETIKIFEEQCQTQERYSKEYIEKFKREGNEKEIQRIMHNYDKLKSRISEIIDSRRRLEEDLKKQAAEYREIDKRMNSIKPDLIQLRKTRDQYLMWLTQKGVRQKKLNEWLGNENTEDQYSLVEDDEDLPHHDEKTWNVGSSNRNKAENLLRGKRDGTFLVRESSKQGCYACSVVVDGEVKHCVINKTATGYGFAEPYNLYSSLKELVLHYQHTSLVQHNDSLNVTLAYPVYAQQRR

As for `Cc1cc(C(C)Nc2ccccc2C(=O)O)c2cc(-c3nc4ccccc4s3)n(C)c(=O)c2c1` (stereo not drawn) [Example 17, 2-((1-(3-(benzo[d]thiazol-2-yl)-2,7-dimethyl-1-oxo-1,2-dihydroisoquinolin-5-yl)ethyl)amino)benzoic acid], the IC50 in experiment [1] is 7.78 µM; in the experiment with WT cell line SK-BR-3 [2] it was greater than 10 µM; with WT cell line SK-BR-3 [3], 0.795 µM.
On to `Cc1cc(C(C)Nc2ccccc2C(=O)O)c2cc(-c3ccc4nc(C)sc4c3)n(C)c(=O)c2c1` (stereo not drawn) [Example 18, 2-((1-(2,7-dimethyl-3-(2-methylbenzo[d]thiazol-6-yl)-1-oxo-1,2-dihydroisoquinolin-5-yl)ethyl)amino)benzoic acid], for which the IC50 was 4.37 µM in experiment [1], greater than 10 µM in the experiment on WT cell line SK-BR-3 [2] and 2.32 µM in the experiment on WT cell line SK-BR-3 [3].
Consider `Cc1cc(C(C)Nc2ccccc2C(=O)O)c2cc(-c3ccc4nn(C)cc4c3)n(C)c(=O)c2c1` (stereo not drawn) [Example 19, 2-((1-(2,7-dimethyl-3-(2-methyl-2H-indazol-5-yl)-1-oxo-1,2-dihydroisoquinolin-5-yl)ethyl)amino)benzoic acid], for which the IC50 was 6.56 µM in experiment [1], greater than 10 µM in the experiment with WT cell line SK-BR-3 [2] and 2.29 µM in the experiment with WT cell line SK-BR-3 [3].
For `CC(Nc1ccccc1C(=O)O)c1cccc2c(=O)n(C)c(-c3ccccc3)cc12` (stereo not drawn) [Example 20, 2-((1-(2-methyl-1-oxo-3-phenyl-1,2-dihydroisoquinolin-5-yl)ethyl)amino)benzoic acid], in that order: 10.1 µM, greater than 10 µM and greater than 10 µM.
For `CC(Nc1ccccc1C(=O)O)c1cccc2c(=O)n(C)c(C#Cc3ccccc3)cc12` (stereo not drawn) [Example 21, 2-((1-(2-methyl-1-oxo-3-(phenylethynyl)-1,2-dihydroisoquinolin-5-yl)ethyl)amino)benzoic acid], the 50% inhibitory concentration (IC50) in experiment [1] was 1.34 µM; with WT cell line SK-BR-3 [2], greater than 10 µM; in the experiment on WT cell line SK-BR-3 [3] it was 5.88 µM.
For `Cc1cc(C(C)Nc2ccccc2C(=O)O)c2cc(-c3cccc4cn(C)nc34)n(C)c(=O)c2c1` (stereo not drawn) [Example 22, 2-((1-(2,7-dimethyl-3-(2-methyl-2H-indazol-7-yl)-1-oxo-1,2-dihydroisoquinolin-5-yl)ethyl)amino)benzoic acid], in that order: 52.3 µM, greater than 10 µM and greater than 10 µM.
On to `Cc1cc(C(C)Nc2ccccc2C(=O)O)c2cc(-c3ccc(-c4cnn(C)c4)cc3)n(C)c(=O)c2c1` (stereo not drawn) [Example 23, 2-((1-(2,7-dimethyl-3-(4-(1-methyl-1H-pyrazol-4-yl)phenyl)-1-oxo-1,2-dihydroisoquinolin-5-yl)ethyl)amino)benzoic acid], for which the IC50 in experiment [1] is 2.03 µM; with WT cell line SK-BR-3 [2], greater than 10 µM; in the experiment with WT cell line SK-BR-3 [3], 1.7 µM.
Regarding `Cc1cc(C(C)Nc2ccccc2C(=O)O)c2cc(NC(=O)c3ccccc3)n(C)c(=O)c2c1` (stereo not drawn) [Example 24, 2-((1-(3-benzamido-2,7-dimethyl-1-oxo-1,2-dihydroisoquinolin-5-yl)ethyl)amino)benzoic acid], the IC50 is 39.2 µM in experiment [1], greater than 10 µM in the experiment with WT cell line SK-BR-3 [2] and greater than 10 µM in the experiment with WT cell line SK-BR-3 [3].
Regarding `CC(Nc1ccccc1C(=O)O)c1cccn2c(=O)cc(-c3ccccc3)cc12` (stereo not drawn) [Example 25, 2-((1-(4-oxo-2-phenyl-4H-quinolizin-9-yl)ethyl)amino)benzoic acid], the IC50 in experiment [1] was 23.8 µM; in the experiment with WT cell line SK-BR-3 [2], greater than 10 µM; in the experiment with WT cell line SK-BR-3 [3], greater than 10 µM.
As for `Cc1cc([C@@H](C)Nc2ccccc2C(=O)O)c2cc(-c3ccccc3)n(C)c(=O)c2c1` [Example 30, (R)-2-((1-(2,7-dimethyl-1-oxo-3-phenyl-1,2-dihydroisoquinolin-5-yl)ethyl)amino)benzoic acid], the figures for the IC50 (in experiment [1]; in the experiment with WT cell line SK-BR-3 [2]; in the experiment on WT cell line SK-BR-3 [3]) were 2.5 µM, greater than 10 µM and 2.5 µM, respectively.
For the molecule `Cc1cc([C@H](C)Nc2ccccc2C(=O)O)c2cc(-c3ccccc3)n(C)c(=O)c2c1` [Example 31, (S)-2-((1-(2,7-dimethyl-1-oxo-3-phenyl-1,2-dihydroisoquinolin-5-yl)ethyl)amino)benzoic acid], the IC50 is greater than 100 µM in experiment [1], greater than 10 µM with WT cell line SK-BR-3 [2] and greater than 10 µM with WT cell line SK-BR-3 [3].
As to `Cc1cc(C(C)Nc2ccccc2C(=O)O)c2cc(-c3ccccc3C#N)n(C)c(=O)c2c1` (stereo not drawn) [Example 32, 2-((1-(3-(2-cyanophenyl)-2,7-dimethyl-1-oxo-1,2-dihydroisoquinolin-5-yl)ethyl)amino)benzoic acid], the figures for the IC50 (in experiment [1]; in the experiment with WT cell line SK-BR-3 [2]; with WT cell line SK-BR-3 [3]) were 61.1 µM, greater than 10 µM and greater than 10 µM, respectively.
`Cc1cc(C(C)Nc2cccnc2C(=O)O)c2cc(-c3ccc(F)cc3)n(C)c(=O)c2c1` (stereo not drawn) [Example 33, 3-((1-(3-(4-fluorophenyl)-2,7-dimethyl-1-oxo-1,2-dihydroisoquinolin-5-yl)ethyl)amino)picolinic acid]: the IC50 is 55.1 µM in experiment [1], greater than 10 µM with WT cell line SK-BR-3 [2] and 9.92 µM in the experiment with WT cell line SK-BR-3 [3].
With `Cc1cc([C@@H](C)Nc2ccccc2C(=O)O)c2cc(-c3ccc(F)cc3)n(C)c(=O)c2c1` [Example 34, (R)-2-((1-(3-(4-fluorophenyl)-2,7-dimethyl-1-oxo-1,2-dihydroisoquinolin-5-yl)ethyl)amino)benzoic acid], the values for the IC50 (in experiment [1]; in the experiment with WT cell line SK-BR-3 [2]; in the experiment on WT cell line SK-BR-3 [3]) were 4.18 µM, greater than 10 µM and greater than 10 µM, respectively.
As to `Cc1cc([C@H](C)Nc2ccccc2C(=O)O)c2cc(-c3ccc(F)cc3)n(C)c(=O)c2c1` [Example 35, (S)-2-((1-(3-(4-fluorophenyl)-2,7-dimethyl-1-oxo-1,2-dihydroisoquinolin-5-yl)ethyl)amino)benzoic acid], the half-maximal inhibitory concentration (IC50) in experiment [1] was greater than 100 µM; in the experiment with WT cell line SK-BR-3 [2], greater than 10 µM; with WT cell line SK-BR-3 [3], greater than 10 µM.
On to `Cc1cc(C(C)Nc2ccccc2C(=O)O)c2cc(-c3ccccn3)n(C)c(=O)c2c1` (stereo not drawn) [Example 36, 2-((1-(2,7-dimethyl-1-oxo-3-(pyridin-2-yl)-1,2-dihydroisoquinolin-5-yl)ethyl)amino)benzoic acid], for which the results for the IC50 (in experiment [1]; in the experiment on WT cell line SK-BR-3 [2]; in the experiment with WT cell line SK-BR-3 [3]) were 50.8 µM, greater than 10 µM and greater than 10 µM, respectively.
With `Cc1cc(C(C)Nc2ccccc2C(=O)O)c2cc(-c3cccnc3)n(C)c(=O)c2c1` (stereo not drawn) [Example 37, 2-((1-(2,7-dimethyl-1-oxo-3-(pyridin-3-yl)-1,2-dihydroisoquinolin-5-yl)ethyl)amino)benzoic acid], the IC50 was 12.5 µM in experiment [1], greater than 10 µM in the experiment on WT cell line SK-BR-3 [2] and greater than 10 µM in the experiment on WT cell line SK-BR-3 [3].
On to `Cc1cc(C(C)Nc2ccccc2C(=O)O)c2cc(-c3cncc(F)c3)n(C)c(=O)c2c1` (stereo not drawn) [Example 38, 2-((1-(3-(5-fluoropyridin-3-yl)-2,7-dimethyl-1-oxo-1,2-dihydroisoquinolin-5-yl)ethyl)amino)benzoic acid], for which the results for the IC50 (in experiment [1]; with WT cell line SK-BR-3 [2]; with WT cell line SK-BR-3 [3]) were 9.81 µM, greater than 10 µM and greater than 10 µM, respectively.
Take `Cc1cc(C(C)Nc2ccccc2C(=O)O)c2cc(-c3ccc4nn(C)cc4n3)n(C)c(=O)c2c1` (stereo not drawn) [Example 39, 2-((1-(2,7-dimethyl-3-(2-methyl-2H-pyrazolo[4,3-b]pyridin-5-yl)-1-oxo-1,2-dihydroisoquinolin-5-yl)ethyl)amino)benzoic acid]: the IC50 in experiment [1] is 10.6 µM; in the experiment on WT cell line SK-BR-3 [2], greater than 10 µM; in the experiment with WT cell line SK-BR-3 [3], 6.17 µM.
For `Cc1cc([C@@H](C)Nc2ccccc2C(=O)O)c2cc(-c3ccc(-c4cnn(C)c4)cc3)n(C)c(=O)c2c1` [Example 40, (R)-2-((1-(2,7-dimethyl-3-(4-(1-methyl-1H-pyrazol-4-yl)phenyl)-1-oxo-1,2-dihydroisoquinolin-5-yl)ethyl)amino)benzoic acid], in that order: 5.12 µM, greater than 10 µM and 0.814 µM.
In the case of `Cc1cc(C(C)Nc2ccccc2C(=O)O)c2cc(C#Cc3ccccc3)n(C)c(=O)c2c1` (stereo not drawn) [Example 43, 2-((1-(2,7-dimethyl-1-oxo-3-(phenylethynyl)-1,2-dihydroisoquinolin-5-yl)ethyl)amino)benzoic acid], the 50% inhibitory concentration (IC50) in experiment [1] was 2.36 µM; in the experiment on WT cell line SK-BR-3 [2], greater than 10 µM; in the experiment on WT cell line SK-BR-3 [3], 1.64 µM.
